Test results published in ChEMBL document CHEMBL1770082, “Probing the isoprenylcysteine carboxyl methyltransferase (Icmt) binding pocket: sulfonamide modified farnesyl cysteine (SMFC) analogs as Icmt inhibitors” (Bioorg Med Chem Lett, 2011).

Assays:
[1] = molecular target: T1, Protein-S-isoprenylcysteine O-methyltransferase (Homo sapiens, UniProt O60725); conditions: at 10 µM
Description: Inhibition of human ICMT at 10 uM incubated with N-Acetyl-S-farnesyl-L-cysteine substrate for 5 mins followed by addition of [14C]-SAM measured after 30 mins by liquid scintillation counting

[2] = molecular target: T1, Protein-S-isoprenylcysteine O-methyltransferase; assay: Inhibition of human ICMT incubated with N-Acetyl-S-farnesyl-L-cysteine substrate for 5 mins followed by addition of [14C]-SAM measured after 30 mins by liquid scintillation counting
[3] = molecular target: T1, Protein-S-isoprenylcysteine O-methyltransferase; assay: Inhibition of human ICMT at 10uM incubated with N-Acetyl-S-farnesyl-L-cysteine substrate for 5 mins followed by addition of [14C]-SAM measured after 30 mins by liquid scintillation counting

T1 sequence (O60725 whole entry): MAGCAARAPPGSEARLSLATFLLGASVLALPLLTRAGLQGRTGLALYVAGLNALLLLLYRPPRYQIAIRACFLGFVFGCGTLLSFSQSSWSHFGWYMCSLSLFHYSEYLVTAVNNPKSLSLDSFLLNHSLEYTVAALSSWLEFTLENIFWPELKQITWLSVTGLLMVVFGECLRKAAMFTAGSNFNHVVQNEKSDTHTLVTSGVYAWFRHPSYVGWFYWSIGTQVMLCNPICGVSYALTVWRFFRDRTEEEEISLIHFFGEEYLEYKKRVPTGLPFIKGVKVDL

| Compound | inhibition [1] [%] | IC50 [2] [µM] | inhibition [3] [%] |
| --- | --- | --- | --- |
| CC(C)=CCC/C(C)=C/CC/C(C)=C/CSC[C@H](NS(=O)(=O)c1ccc(C)cc1)C(=O)O | < 45 | – | – |
| CC(C)=CCC/C(C)=C/CC/C(C)=C/CSC[C@H](NS(=O)(=O)c1ccc2ccccc2c1)C(=O)O | 45 | – | – |
| CC(C)=CCC/C(C)=C/CSC[C@H](NS(=O)(=O)c1cccc([N+](=O)[O-])c1)C(=O)O | 18 | – | – |
| COc1ccc(S(=O)(=O)N[C@@H](CSC/C=C(\C)CC/C=C(\C)CCC=C(C)C)C(=O)O)cc1 | < 45 | – | – |
| CC(C)=CCC/C(C)=C/CC/C(C)=C/CSC[C@H](NS(=O)(=O)c1cccc([N+](=O)[O-])c1)C(=O)O | > 55 | 13.4 | – |
| CC(C)=CCC/C(C)=C/CSC[C@H](NS(=O)(=O)c1ccccc1)C(=O)O | 22 | – | – |
| CC(C)=CCC/C(C)=C/CSC[C@H](NS(=O)(=O)c1ccc(F)cc1)C(=O)O | 23 | – | – |
| CC(C)=CCC/C(C)=C/CC/C(C)=C/CSC[C@H](NS(=O)(=O)Cc1ccccc1)C(=O)O | < 45 | – | – |
| CCCCCCSC[C@H](NS(=O)(=O)c1cccc([N+](=O)[O-])c1)C(=O)O | 17 | – | – |
| CC(C)=CCC/C(C)=C/CC/C(C)=C/CSC[C@H](NS(=O)(=O)c1ccc(C(C)(C)C)cc1)C(=O)O | 45 | – | – |
| COc1ccc(S(=O)(=O)N[C@@H](CSC/C=C(\C)CC/C=C(\C)CCC=C(C)C)C(=O)O)c(OC)c1 | 45 | – | – |
| CC(C)=CCC/C(C)=C/CC/C(C)=C/CSC[C@H](NS(=O)(=O)c1ccc(-c2ccccc2)cc1)C(=O)O | < 45 | – | – |
| CC(C)=CCC/C(C)=C/CC/C(C)=C/CSC[C@H](NS(=O)(=O)c1ccccc1[N+](=O)[O-])C(=O)O | 45 | – | – |
| CC(C)=CCC/C(C)=C/CC/C(C)=C/CSC[C@H](NS(=O)(=O)c1ccc([N+](=O)[O-])cc1)C(=O)O | > 55 | – | – |
| CC(C)=CCC/C(C)=C/CC/C(C)=C/CSC[C@H](NS(=O)(=O)c1ccccc1Oc1ccccc1)C(=O)O | 55 | 18.4 | – |
| CC(C)=CCC/C(C)=C/CC/C(C)=C/CSC[C@H](NS(=O)(=O)c1ccccc1C(F)(F)F)C(=O)O | < 45 | – | – |
| CCCCCCCCCCCSC[C@H](NS(=O)(=O)c1cccc([N+](=O)[O-])c1)C(=O)O | 32 | – | – |
| CC(C)=CCC/C(C)=C/CC/C(C)=C/CSC[C@H](NS(=O)(=O)c1ccccc1)C(=O)O | 45 | 17 | – |
| CC(C)=CCC/C(C)=C/CC/C(C)=C/CSC[C@H](NS(=O)(=O)c1cccc2c(N(C)C)cccc12)C(=O)O | 45 | 11.6 | – |
| CC(C)=CCC/C(C)=C/CC/C(C)=C/CSC[C@H](NS(=O)(=O)c1ccc(F)cc1)C(=O)O | > 55 | 15.5 | – |

| Compound | inhibition [1] [%] | IC50 [2] [µM] | inhibition [3] [%] |
| --- | --- | --- | --- |
| CC(C)=CCC/C(C)=C/CC/C(C)=C/CSC[C@H](NS(=O)(=O)c1cccc2cccnc12)C(=O)O | 45 | – | – |
| COc1ccc(S(=O)(=O)N[C@@H](CSC/C=C(\C)CC/C=C(\C)CCC=C(C)C)C(=O)O)c([N+](=O)[O-])c1 | < 45 | – | – |
| CC(C)=CCC/C(C)=C/CC/C(C)=C/CSC[C@H](NS(=O)(=O)c1ccc(Br)s1)C(=O)O | < 45 | – | – |
| COC(=O)[C@H](CSC/C=C(\C)CC/C=C(\C)CCC=C(C)C)NS(=O)(=O)c1cccs1 | – | – | 10 |
| CC(C)=CCC/C(C)=C/CC/C(C)=C/CSC[C@H](NS(=O)(=O)C[C@@]12CC[C@H](CC1=O)C2(C)C)C(=O)O | 45 | – | – |
| CC(C)=CCC/C(C)=C/CC/C(C)=C/CSC[C@H](NS(=O)(=O)c1ccc(Cl)cc1F)C(=O)O | < 45 | – | – |
| CC(C)=CCC/C(C)=C/CC/C(C)=C/CSC[C@H](NS(=O)(=O)c1c(C)c(C)c(C)c(C)c1C)C(=O)O | < 45 | – | – |
| CCCCCCCCS(=O)(=O)N[C@@H](CSC/C=C(\C)CC/C=C(\C)CCC=C(C)C)C(=O)O | < 45 | – | – |
| CC(C)=CCC/C(C)=C/CC/C(C)=C/CSC[C@H](NS(=O)(=O)c1cccs1)C(=O)O | > 55 | 8.8 | – |
| CC(C)=CCC/C(C)=C/CC/C(C)=C/CSC[C@H](NS(=O)(=O)c1c(F)c(F)c(F)c(F)c1F)C(=O)O | < 45 | – | – |
| CC(C)=CCC/C(C)=C/CC/C(C)=C/CSC[C@H](NS(=O)(=O)c1ccc(Cl)cc1)C(=O)O | 45 | – | – |
| CC(=O)c1ccc(S(=O)(=O)N[C@@H](CSC/C=C(\C)CC/C=C(\C)CCC=C(C)C)C(=O)O)cc1 | 45 | – | – |
| C=Cc1ccc(S(=O)(=O)N[C@@H](CSC/C=C(\C)CC/C=C(\C)CCC=C(C)C)C(=O)O)cc1 | < 45 | – | – |
| CC(C)=CCC/C(C)=C/CC/C(C)=C/CSC[C@H](NS(=O)(=O)c1ccc(C(C)C)cc1)C(=O)O | < 45 | – | – |
| CC(=O)Nc1ccc(S(=O)(=O)N[C@@H](CSC/C=C(\C)CC/C=C(\C)CCC=C(C)C)C(=O)O)cc1 | < 45 | – | – |
| CC(C)=CCC/C(C)=C/CC/C(C)=C/CSC[C@H](NS(=O)(=O)c1c(C(C)C)cc(C(C)C)cc1C(C)C)C(=O)O | < 45 | – | – |
| CC(C)=CCC/C(C)=C/CC/C(C)=C/CSC[C@H](NS(=O)(=O)c1ccccc1Br)C(=O)O | < 45 | – | – |
| CC(C)=CCC/C(C)=C/CC/C(C)=C/CSC[C@H](NS(=O)(=O)c1ccc(F)cc1F)C(=O)O | 45 | – | – |
| COc1ccc(S(=O)(=O)N[C@@H](CSC/C=C(\C)CC/C=C(\C)CCC=C(C)C)C(=O)O)cc1OC | > 55 | – | – |
| CCCc1ccc(S(=O)(=O)N[C@@H](CSC/C=C(\C)CC/C=C(\C)CCC=C(C)C)C(=O)O)cc1 | < 45 | – | – |
